# Assay: Dissolution of calcium ortho-aminobenzoate by salt exchange with ammonium ions (ammonium carbonate stock solution)
# Assay type: physicochemical
# Procedure: 48.0 g of anhydrous calcium chloride was added to 1.00 L of fermentation broth. The pH was adjusted to a value of 7.0 by adding hydrochloric acid. 100 g of ortho-aminobenzoic acid (dissolved in sodium hydroxide solution at pH 7.0) was then added to this mixture by adding 200 mL of oAB STOCK SOLUTION. There was briefly precipitation of calcium ortho-aminobenzoate. The concentration of dissolved ortho-aminobenzoic acid measured in the aqueous phase was 18.0 g/L. The solids fraction of the mixture was filtered off and dried at 80° C. for 48 h. In this way, 110 g of dried solid material was obtained. 20.0 g of that was added to 50.0 mL of AMMONIUM STOCK SOLUTION 1, the mixture was stirred and the concentration of dissolved ortho-aminobenzoic acid was determined. The latter was 146 g/L.
# 48.0 g of anhydrous calcium chloride was added to 800 mL of water. The pH was adjusted to a value of 7.0 by adding hydrochloric acid. […] The concentration of dissolved ortho-aminobenzoic acid measured in the aqueous phase was 18.0 g/L. The solids fraction of the mixture was filtered off and dried at 80° C. for 48 h. […] 20.0 g of that was added to 25.0 mL of AMMONIUM STOCK SOLUTION 2, the mixture was stirred and the concentration of dissolved ortho-aminobenzoic acid was determined.
substance,measurement,setting,value
calcium ortho-aminobenzoate,concentration of dissolved ortho-aminobenzoic acid after salt exchange,20.0 g dried solid in 25.0 mL ammonium carbonate 210 g/L (Example 2),175000 µg/mL
same,concentration of dissolved ortho-aminobenzoic acid after salt exchange,20.0 g dried solid in 50.0 mL ammonium carbonate 105 g/L (Example 1),146000 µg/mL

# Reference: patent US11453897B2, “Method for producing aminobenzoic acid or an aminobenzoic acid derivative product” (Covestro Intellectual Property GmbH & Co. KG, priority 2018, dated 2022)
